The target in this experiment is Beta-2 adrenergic receptor (Rattus norvegicus) (UniProt P10608). The experiment can be described thus: Compound was evaluated for its binding affinity to beta-2 receptor in rat brain using [3H]- DHA radioligand assay.

Structures are written as SMILES.

For one compound, Ki results are on record in BindingDB's records for doi:10.1016/0960-894X(95)00398-D (1995).

Chain of Beta-2 adrenergic receptor (Rattus norvegicus) (P10608 whole entry, looked up): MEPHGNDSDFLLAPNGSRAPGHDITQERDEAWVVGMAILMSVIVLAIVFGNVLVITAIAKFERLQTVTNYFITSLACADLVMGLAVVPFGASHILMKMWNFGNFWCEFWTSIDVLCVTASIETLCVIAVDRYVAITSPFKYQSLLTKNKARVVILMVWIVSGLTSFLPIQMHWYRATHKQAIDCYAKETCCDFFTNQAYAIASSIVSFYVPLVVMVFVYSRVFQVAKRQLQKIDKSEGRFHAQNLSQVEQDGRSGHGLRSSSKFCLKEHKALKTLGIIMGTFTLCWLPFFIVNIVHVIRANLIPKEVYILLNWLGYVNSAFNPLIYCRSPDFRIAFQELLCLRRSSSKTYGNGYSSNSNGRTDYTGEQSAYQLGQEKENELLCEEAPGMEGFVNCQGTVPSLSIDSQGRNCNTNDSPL

Regarding `COc1cccc2c1CCC[C@H]2CN(C)CCc1ccc2ccoc2c1` [A-80426], the inhibition constant (Ki) (usually the equilibrium dissociation constant of an inhibitor or competing ligand from its target) came out at 1740 nM.
